Source: US10077261B2, “Imidazolin-5-one derivative useful as FASN inhibitors for the treatment of cancer” (Janssen Pharmaceutica NV, priority 2012, dated 2018)
pIC50: −log10 of the molar value.

What was measured:
[1] = biological target: T1, hFASN enzyme (full length) (Homo sapiens, UniProt P49327); experiment: Fatty Acid Synthase (FASN) inhibition scintillation proximity assay; format: biochemical; conditions: for inhibition at 10 µM: read-out: Human FASN % inhibition @ 10 μM, 10 μM test compound; for IC50: read-out: Human FASN pIC50 (converted)
T1 construct: 10 μL hFASN enzyme (full length, 300 ng, purified in house); made in house
T1 sequence (P49327 whole entry): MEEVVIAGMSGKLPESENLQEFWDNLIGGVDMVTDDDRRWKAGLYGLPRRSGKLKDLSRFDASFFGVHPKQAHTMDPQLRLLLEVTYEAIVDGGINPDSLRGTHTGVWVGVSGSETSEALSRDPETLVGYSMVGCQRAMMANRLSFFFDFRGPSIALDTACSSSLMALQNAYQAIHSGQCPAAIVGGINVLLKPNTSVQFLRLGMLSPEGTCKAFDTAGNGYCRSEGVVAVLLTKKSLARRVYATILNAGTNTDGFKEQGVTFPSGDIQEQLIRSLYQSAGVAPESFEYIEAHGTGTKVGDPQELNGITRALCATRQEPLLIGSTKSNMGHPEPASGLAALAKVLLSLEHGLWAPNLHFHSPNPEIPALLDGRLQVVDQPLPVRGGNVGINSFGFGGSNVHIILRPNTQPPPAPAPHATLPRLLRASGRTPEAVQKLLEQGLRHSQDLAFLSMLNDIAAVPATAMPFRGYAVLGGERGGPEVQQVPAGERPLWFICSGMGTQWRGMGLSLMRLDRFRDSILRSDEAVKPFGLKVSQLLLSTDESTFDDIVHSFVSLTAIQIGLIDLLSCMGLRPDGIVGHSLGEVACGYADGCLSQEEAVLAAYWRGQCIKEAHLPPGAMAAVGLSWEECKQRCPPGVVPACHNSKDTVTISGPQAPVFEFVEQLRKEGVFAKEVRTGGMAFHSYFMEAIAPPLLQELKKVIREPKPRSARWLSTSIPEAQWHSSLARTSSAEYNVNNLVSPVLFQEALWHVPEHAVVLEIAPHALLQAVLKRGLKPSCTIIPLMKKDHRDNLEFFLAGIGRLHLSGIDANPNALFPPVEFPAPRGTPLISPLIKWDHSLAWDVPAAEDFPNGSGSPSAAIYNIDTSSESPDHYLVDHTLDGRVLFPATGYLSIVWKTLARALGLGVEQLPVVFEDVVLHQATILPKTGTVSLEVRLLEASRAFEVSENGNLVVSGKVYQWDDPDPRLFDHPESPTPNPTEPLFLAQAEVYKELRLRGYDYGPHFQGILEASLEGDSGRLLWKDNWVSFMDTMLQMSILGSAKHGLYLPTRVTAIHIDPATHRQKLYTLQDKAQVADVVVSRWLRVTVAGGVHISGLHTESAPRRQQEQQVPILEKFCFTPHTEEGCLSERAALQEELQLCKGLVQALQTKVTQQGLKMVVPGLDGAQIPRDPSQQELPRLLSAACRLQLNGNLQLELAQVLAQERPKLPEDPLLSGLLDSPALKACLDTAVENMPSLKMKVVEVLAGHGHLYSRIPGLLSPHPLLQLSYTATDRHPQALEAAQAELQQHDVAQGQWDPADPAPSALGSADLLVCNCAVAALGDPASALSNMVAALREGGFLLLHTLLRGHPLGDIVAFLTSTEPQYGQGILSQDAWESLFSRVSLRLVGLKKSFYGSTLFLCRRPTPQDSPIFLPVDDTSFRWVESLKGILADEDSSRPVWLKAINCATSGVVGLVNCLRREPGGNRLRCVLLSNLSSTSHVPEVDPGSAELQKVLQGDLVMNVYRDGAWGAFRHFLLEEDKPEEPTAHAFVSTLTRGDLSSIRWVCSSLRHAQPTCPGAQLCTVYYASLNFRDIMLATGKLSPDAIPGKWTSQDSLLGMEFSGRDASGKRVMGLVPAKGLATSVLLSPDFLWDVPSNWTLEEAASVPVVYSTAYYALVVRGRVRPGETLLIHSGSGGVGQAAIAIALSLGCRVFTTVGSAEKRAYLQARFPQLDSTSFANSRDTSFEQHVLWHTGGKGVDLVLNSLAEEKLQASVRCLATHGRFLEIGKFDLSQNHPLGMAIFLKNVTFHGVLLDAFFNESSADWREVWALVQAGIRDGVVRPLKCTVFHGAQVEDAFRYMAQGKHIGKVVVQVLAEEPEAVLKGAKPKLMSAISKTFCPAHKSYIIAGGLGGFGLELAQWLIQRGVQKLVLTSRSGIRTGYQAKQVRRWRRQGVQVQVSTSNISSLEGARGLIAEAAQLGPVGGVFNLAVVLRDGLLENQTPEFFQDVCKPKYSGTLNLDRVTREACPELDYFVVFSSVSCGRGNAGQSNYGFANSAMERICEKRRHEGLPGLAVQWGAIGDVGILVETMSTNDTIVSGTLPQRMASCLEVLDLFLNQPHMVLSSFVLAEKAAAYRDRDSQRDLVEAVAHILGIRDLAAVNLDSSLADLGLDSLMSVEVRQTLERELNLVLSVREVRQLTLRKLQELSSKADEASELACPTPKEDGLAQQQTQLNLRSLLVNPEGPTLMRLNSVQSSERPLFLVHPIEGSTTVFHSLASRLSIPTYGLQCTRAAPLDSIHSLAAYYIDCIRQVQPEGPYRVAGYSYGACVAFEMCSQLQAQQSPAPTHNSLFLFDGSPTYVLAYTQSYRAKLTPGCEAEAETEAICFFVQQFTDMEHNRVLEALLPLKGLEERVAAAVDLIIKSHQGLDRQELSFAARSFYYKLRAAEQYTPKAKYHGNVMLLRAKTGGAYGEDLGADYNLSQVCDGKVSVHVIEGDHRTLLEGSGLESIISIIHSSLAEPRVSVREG
How it was run: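 Compounds at 0.01–30 μM were mixed with 300 ng purified full-length enzyme in 100 mM KH2PO4 pH 7.5, 1 mM DTT. Substrates ³H-acetyl-CoA and malonyl-CoA were then converted, and bead addition stopped the reaction. Signal was normalised to low and high plate controls and fitted by 4-parameter nonlinear regression.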

[2] = test system: A2780 ovarian cells; experiment: A2780 ovarian cell proliferation assay in lipid reduced medium, without palmitate (MTT); format: cell-based; conditions: Homo sapiens, A2780, 96 h; read-out: pIC50 A2780 Ovarian Cell, Without Palmitate (converted)
[3] = biological target: Fatty Acid Synthase Keto-reductase Domain (FASN KR) (Homo sapiens, UniProt P49327); experiment: Fatty Acid Synthase keto-reductase domain (FASN KR) inhibition, NADPH oxidation at 340 nm
Fatty Acid Synthase Keto-reductase Domain (FASN KR), sequence (P49327 whole entry, the tested form may be a part): as the sequence (P49327 whole entry) above
Protocol: After 20 minutes incubation at room temperature the plate was measured again (T2).
The decrease in absorbance was calculated as (Absorbance before incubation T1)−(Absorbance following incubation T2).
A plot of Controlmin versus test compound concentration was fitted to a 4-parameter logistic curve using a non-linear least squares regression method.

[4] = test system: A2780 ovarian cells; experiment: A2780 ovarian cell proliferation assay in lipid reduced medium, with palmitate (MTT); format: cell-based; conditions: Homo sapiens, A2780, 96 h; read-out: pIC50 A2780 Ovarian Cell, With Palmitate (converted)
How it was run: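 Seeded cells were switched next day to lipid-reduced serum, exposed to compound and 25 μM palmitate complexed with fatty-acid-free BSA, and incubated 96 h. Proliferation was then determined by MTT absorbance at 544 nm, with a best-fit curve of signal against concentration.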

[5] = test system: PC-3M-Luc-C6 prostate cells; experiment: In vitro PC-3M-Luc-C6 prostate cell proliferation assay in lipid reduced medium; format: cell-based; conditions: 96 h, read-out: pIC50 PC-3M-Luc-C6 prostate cell (converted)
[6] = test system: LNCaP-Vancouver prostate cells; experiment: In vitro LNCaP Vancouver prostate cell proliferation assay in lipid reduced medium; format: cell-based; conditions: read-out: pIC50 LNCaP_Vancouver prostate cell (converted)

Compound	inhibition at 10 µM [1] [%]	IC50 [1] [nM]	IC50 [2] [nM]	pIC50 [3]	IC50 [4] [nM]	IC50 [5] [nM]	IC50 [6] [nM]
O=C(C1CC1)N1CC(CN2C(=O)C3(CC3)N=C2c2ccc(-c3nc4cc(F)c(F)cc4s3)cc2F)C1 [compound 639, 6-{[1-(Cyclopropylcarbonyl)azetidin-3-yl]methyl}-5-[4-(5,6-difluoro-1,3-benzothiazol-2-yl)-2-fluorophenyl]-4,6-diazaspiro[2.4]hept-4-en-7-one]	97	282	~363	5.84	> 10000	794	2340
O=C(C1CC1)N1CC(CN2C(=O)C3(CC3)N=C2c2ccc(-c3cccc(SC4CC4)c3)cc2F)C1 [compound 645, 6-{[1-(Cyclopropylcarbonyl)azetidin-3-yl]methyl}-5-[3′-(cyclopropylsulfanyl)-3-fluorobiphenyl-4-yl]-4,6-diazaspiro[2.4]hept-4-en-7-one]	100	275	~2040	6.17	> 10000	1740	3470
O=C(C1CC1)N1CC[C@@H](CN2C(=O)C3(CC3)N=C2c2ccc(-c3cccc(S(=O)(=O)C4CC4)c3)cc2F)C1 [compound 647, 6-{[(3R)-1-(Cyclopropylcarbonyl)pyrrolidin-3-yl]methyl}-5-[3′-(cyclopropylsulfonyl)-3-fluorobiphenyl-4-yl]-4,6-diazaspiro[2.4]hept-4-en-7-one]	91	631	1950	5.86	> 10000	1740	5130
O=C(C1CC1)N1CC(CN2C(=O)C3(CC3)N=C2c2ccc(-c3nc4ccc(Cl)cc4o3)cc2F)C1 [compound 649, 5-[4-(6-Chloro-1,3-benzoxazol-2-yl)-2-fluorophenyl]-6-{[1-(cyclopropylcarbonyl)azetidin-3-yl]methyl}-4,6-diazaspiro[2.4]hept-4-en-7-one]	97	158	200	6.43	7410	437	1740
O=C(C1CC1)N1CC[C@@H](CN2C(=O)C3(CCOCC3)N=C2c2ccc(-c3ccc4cccnc4c3)cc2)C1 [compound 661, 3-{[(3R)-1-(Cyclopropylcarbonyl)pyrrolidin-3-yl]methyl}-2-(4-quinolin-7-ylphenyl)-8-oxa-1,3-diazaspiro[4.5]dec-1-en-4-one]	95	58.9	42.7	6.88	> 10000	~79.4	191
CC(O)C(=O)N1CC[C@@H](CN2C(=O)C3(CCOCC3)N=C2c2ccc(-c3ccc4cccnc4c3)cc2)C1 (stereo partly drawn) [compound 662, 3-{[(3R)-1-(2-Hydroxypropanoyl)pyrrolidin-3-yl]methyl}-2-(4-quinolin-7-ylphenyl)-8-oxa-1,3-diazaspiro[4.5]dec-1-en-4-one]	98	302	457	6.21	> 10000	708	2880
O=C(N1CCCC1)N1CC[C@@H](CN2C(=O)C3(CCOCC3)N=C2c2ccc(-c3ccc4cccnc4c3)cc2)C1 [compound 665, 3-{[(3S)-1-(Pyrrolidin-1-ylcarbonyl)pyrrolidin-3-yl]methyl}-2-(4-quinolin-7-ylphenyl)-8-oxa-1,3-diazaspiro[4.5]dec-1-en-4-one]	94	324	550	6.20	> 10000	794	1230
Cn1cc(-c2ccc(-c3ccc(C4=NC5(CCOC5)C(=O)N4C[C@@H]4CCN(C(=O)[C@H]5CCCO5)C4)cc3)cc2)cn1 (stereo partly drawn) [compound 678, 2-[4′-(1-Methyl-1H-pyrazol-4-yl)biphenyl-4-yl]-3-({(3R)-1-[(2R)-tetrahydro-furan-2-ylcarbonyl]pyrrolidin-3-yl}methyl)-7-oxa-1,3-diazaspiro[4.4]non-1-en-4-one]	95	372	676	6.08	> 10000	891	3310

The remaining lines, values ahead:

inhibition at 10 µM [1] [%]	IC50 [1] [nM]	IC50 [2] [nM]	pIC50 [3]	IC50 [4] [nM]	IC50 [5] [nM]	IC50 [6] [nM]	Compound
91	295	794	5.86	> 10000	1380	4900	CC(O)C(=O)N1CC[C@@H](CN2C(=O)C3(CCOC3)N=C2c2ccc(-c3ccc4cccnc4c3)cc2)C1 (stereo partly drawn) [compound 681, 3-{[(3R)-1-(2-Hydroxypropanoyl)pyrrolidin-3-yl]methyl}-2-(4-quinolin-7-ylphenyl)-7-oxa-1,3-diazaspiro[4.4]non-1-en-4-one]
96	115	117	6.74	> 10000	219	1000	O=C([C@H]1CCCO1)N1CC[C@@H](CN2C(=O)C3(CCOC3)N=C2c2ccc(-c3ccc4cccnc4c3)cc2)C1 (stereo partly drawn) [compound 682, 2-(4-Quinolin-7-ylphenyl)-3-({(3R)-1-[(2R)-tetrahydro-furan-2-ylcarbonyl]pyrrolidin-3-yl}methyl)-7-oxa-1,3-diazaspiro[4.4]non-1-en-4-one]
84	851	1230	5.79	> 10000	1170	3020	O=C(N1CCCC1)N1CC[C@@H](CN2C(=O)C3(CCOC3)N=C2c2ccc(-c3ccc4cccnc4c3)cc2)C1 (stereo partly drawn) [compound 685, 3-{[(3S)-1-(Pyrrolidin-1-ylcarbonyl)pyrrolidin-3-yl]methyl}-2-(4-quinolin-7-ylphenyl)-7-oxa-1,3-diazaspiro[4.4]non-1-en-4-one]
92	251	380	6.34	> 10000	575	2630	O=C(C1CC1)N1CC(CN2C(=O)C3(CCOCC3)N=C2c2ccc(-c3ccc4cccnc4c3)cc2)C1 [compound 698, 3-{[1-(Cyclopropylcarbonyl)azetidin-3-yl]methyl}-2-(4-quinolin-7-ylphenyl)-8-oxa-1,3-diazaspiro[4.5]dec-1-en-4-one]
94	240	468	6.08	> 10000	1000	3390	O=C([C@H]1CCCO1)N1CC(CN2C(=O)C3(CCOCC3)N=C2c2ccc(-c3ccc4cccnc4c3)cc2)C1 [compound 700, 2-(4-Quinolin-7-ylphenyl)-3-({1-[(2R)-tetrahydro-furan-2-ylcarbonyl]azetidin-3-yl}methyl)-8-oxa-1,3-diazaspiro[4.5]dec-1-en-4-one]
95	479	891	5.41	> 10000	1260	4570	O=C(N1CCCC1)N1CC(CN2C(=O)C3(CCOCC3)N=C2c2ccc(-c3ccc4cccnc4c3)cc2)C1 [compound 701, 3-{[1-(Pyrrolidin-1-ylcarbonyl)azetidin-3-yl]methyl}-2-(4-quinolin-7-ylphenyl)-8-oxa-1,3-diazaspiro[4.5]dec-1-en-4-one]
